This passage reports Ki and IC50 results from ChEMBL document CHEMBL1131176, “Structure-based enhancement of boronic acid-based inhibitors of AmpC beta-lactamase” (J Med Chem, 1998).

Test [1] deals with T1, Beta-lactamase (Escherichia coli K-12, UniProt P00811). The experiment in a line: Inhibitory activity against Escherichia coli AmpC beta-lactamase.
The target in test [2] is T1, Beta-lactamase. The test can be described thus: Compound was tested for its specificity against AmpC beta-lactamase.
Test [3] concerns the target Chymotrypsinogen A (Bos taurus, UniProt P00766). The test can be described thus: Compound was tested for its specificity against alpha-chymotrypsin.
For test [4], the species on record is Homo sapiens. The experiment in a line: Compound was tested for its specificity against Elastase.

Each structure is given as a SMILES string.

T1 sequence (P00811 whole entry): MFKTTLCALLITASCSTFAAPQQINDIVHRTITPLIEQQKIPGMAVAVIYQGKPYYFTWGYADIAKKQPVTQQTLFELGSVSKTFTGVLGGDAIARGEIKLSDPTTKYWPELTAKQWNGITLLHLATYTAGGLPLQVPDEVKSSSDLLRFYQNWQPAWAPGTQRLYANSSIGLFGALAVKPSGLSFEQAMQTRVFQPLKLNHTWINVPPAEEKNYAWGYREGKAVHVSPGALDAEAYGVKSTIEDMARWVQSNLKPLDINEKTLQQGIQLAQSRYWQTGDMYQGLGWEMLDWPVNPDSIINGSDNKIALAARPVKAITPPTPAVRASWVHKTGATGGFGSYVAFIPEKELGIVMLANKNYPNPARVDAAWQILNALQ

The Ki is the equilibrium dissociation constant of an inhibitor or competing ligand from its target. On to `OB(O)c1ccc(-c2ccc(B(O)O)cc2)cc1`, for which the affinity in test [1], expressed as Ki, was 0.2 µM. This counts as sub-micromolar.

Molecule `CC(=O)c1ccc(B(O)O)s1` displayed an inhibition constant Ki in test [1] of 1.6 µM.

As for `O=Cc1ccccc1B(O)O`, the affinity in test [1] corresponds to a Ki of 25.3 µM.

As for `O=Cc1ccc(B(O)O)cc1`, in test [1], the Ki worked out at 2.9 µM.

`OB(O)c1cc2ccccc2c2ccccc12`: affinity in test [1] was put at a Ki of 7 µM.

A word on the IC50: it is the midpoint of a concentration-inhibition curve. High values mean a need for much substance, low ones inhibition by little substance. `OB(O)[C@@H]1CCOC1`: the IC50 in test [2] is 5 µM; in test [3] it was more than 200 µM; in test [4], more than 200 µM.

For the molecule `OB(O)c1ccc(B(O)O)cc1`, the Ki in test [1] worked out at 3.9 µM.

Take `OB(O)c1cccs1`: the values for the IC50 in test [3] and in test [4] were more than 200 µM and 200 µM, respectively.

In test [1], `OB(O)c1ccco1` displayed a Ki of more than 100 µM.

For `OB(O)c1ccc(Cl)s1`, the values for the 50% inhibitory concentration (IC50) in test [2], in test [3] and in test [4] were 2 µM, more than 100 µM and 200 µM, respectively. Moreover, the inhibition constant (Ki) in test [1] is 0.41 µM.

Take `OB(O)c1cc2ccccc2o1`: the IC50 is 0.6 µM in test [2] and 14 µM in test [3]. Further, the inhibitory constant (Ki) in test [1] turned out to be 0.22 µM.

As for `OB(O)c1ccc(C(F)(F)F)cc1`, the inhibition constant (Ki) in test [1] stood at 3 µM.

For the molecule `OB(O)c1ccc(Br)cc1`, the Ki in test [1] was 3.6 µM. This Ki and that of the molecule before are within 1.5-fold of each other.

As for `COc1ccc(B(O)O)cc1`, in test [1], the Ki stood at 5.9 µM. This Ki is about 1.6-fold higher than that of the molecule before.

Consider `O=Cc1ccsc1B(O)O`, for which, in test [1], the Ki was determined as 3.8 µM.

Turning to `OB(O)c1cccc(C(F)(F)F)c1`, the IC50 in test [2] was 5 µM; in test [3] it was more than 200 µM; in test [4], more than 200 µM. The molecule further yielded an inhibition constant Ki in test [1] of 1.1 µM.

`OB(O)c1ccsc1` returned a Ki in test [1] of 22.1 µM.

Regarding `OB(O)c1ccc(F)cc1`, in test [1], the Ki was 6.4 µM.

For the molecule `OB(O)c1cc2ccccc2s1`, the midpoint of inhibition in test [3], the IC50, lay at 5 µM.

`OB(O)c1cccc2ccccc12` showed a Ki in test [1] of 12 µM. This lies in the double-digit micromolar range.

On to `O=C(O)c1cccc(B(O)O)c1`, for which the Ki in test [1] is more than 100 µM.

Molecule `CCCCB(O)O` [BUTYL BORONIC ACID] gave a Ki in test [1] of more than 100 µM.

`OB(c1ccccc1)c1ccccc1` [DIPHENYL BORINIC ACID] had an inhibition constant (Ki) in test [1] of more than 100 µM.

Turning to `CN(C)c1cccc2c(S(=O)(=O)Nc3cccc(B(O)O)c3)cccc12` [M(DANSYLAMIDOPHENYL)BORONIC ACID], the IC50 in test [2] is 5 µM; in test [3] it was more than 100 µM; in test [4] it was 50 µM. In addition, in test [1], the affinity, expressed as Ki, was 1.3 µM.

In turn, `OB(O)c1ccccc1` [PHENYLBORONIC ACID] registered an inhibition constant (Ki) in test [1] of 10.5 µM. That is a double-digit micromolar value.

`Cc1ccc(B(O)O)cc1` [TOLYL BORONIC ACID]: the Ki in test [1] was found to be 5.4 µM.
